Measured values published in the supplement of paper PMC10307832.

What was measured:
Test in all cases: relative viability (nuclei count vs DMSO), 5 days (fraction); higher = more cells survive
Trametinib + Navitoclax = compound: CC(=O)Nc1cccc(-n2c(=O)n(C3CC3)c(=O)c3c(Nc4ccc(I)cc4F)n(C)c(=O)c(C)c32)c1 [Trametinib] + CC1(C)CCC(c2ccc(Cl)cc2)=C(CN2CCN(c3ccc(C(=O)NS(=O)(=O)c4ccc(N[C@H](CCN5CCOCC5)CSc5ccccc5)c(S(=O)(=O)C(F)(F)F)c4)cc3)CC2)C1 [Navitoclax] (partner 0.5 µM)
Method in brief: (§1)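 Lung cancer cell lines were seeded in 1536-well plates and dosed by pin tool the next day, with either a single drug or a fixed anchor-drug dose combined with five library-drug doses (not always all listed) spaced in √10 steps. Five days later, one step fixed the cells and stained their nuclei (final 0.05% Triton X-100, 1% formaldehyde, 1 ug/ml Hoechst), and nuclei were counted on 4× images. Relative viability is the nuclei count in treated wells divided by the count in vehicle wells, and each value is the median of duplicate plates.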

Trametinib + Tozasertib = compound: CC(=O)Nc1cccc(-n2c(=O)n(C3CC3)c(=O)c3c(Nc4ccc(I)cc4F)n(C)c(=O)c(C)c32)c1 [Trametinib] + Cc1cc(Nc2cc(N3CCN(C)CC3)nc(Sc3ccc(NC(=O)C4CC4)cc3)n2)n[nH]1 [Tozasertib] (partner 0.1 µM)
Method in brief: as §1

[1] = compound: CN1C=C(C2=CC=CC=C21)/C=C\3/C4=C(C=CC=N4)NC3=O + CCNC(=O)c1noc(-c2cc(C(C)C)c(O)cc2O)c1-c1ccc(CN2CCOCC2)cc1 [Luminespib] (partner 0.01 µM)
Method in brief: as §1

[2] = compound: CN1C=C(C2=CC=CC=C21)/C=C\3/C4=C(C=CC=N4)NC3=O + NC(=O)Nc1cc(-c2cccc(F)c2)sc1C(=O)N[C@H]1CCCNC1 [AZD7762] (partner 0.2 µM)
Method in brief: as §1

Cell Line	relative viability (Trametinib + Navitoclax; first compound 0.0025 µM)	relative viability (Trametinib + Navitoclax; first compound 0.007906 µM)	relative viability (Trametinib + Navitoclax; first compound 0.025 µM)	relative viability (Trametinib + Navitoclax; first compound 0.07906 µM)	relative viability (Trametinib + Navitoclax; first compound 0.25 µM)	relative viability (Trametinib + Tozasertib; first compound 0.0025 µM)	relative viability (Trametinib + Tozasertib; first compound 0.007906 µM)	relative viability (Trametinib + Tozasertib; first compound 0.025 µM)	relative viability (Trametinib + Tozasertib; first compound 0.07906 µM)	relative viability (Trametinib + Tozasertib; first compound 0.25 µM)	relative viability ([1]; first compound 0.02 µM)	relative viability ([1]; first compound 0.06325 µM)	relative viability ([1]; first compound 0.2 µM)	relative viability ([1]; first compound 0.6325 µM)	relative viability ([1]; first compound 2 µM)	relative viability ([2]; first compound 0.02 µM)	relative viability ([2]; first compound 0.06325 µM)	relative viability ([2]; first compound 0.2 µM)	relative viability ([2]; first compound 0.6325 µM)	relative viability ([2]; first compound 2 µM)
LC-2-ad	0.35	0.306	0.34	0.285	0.173	0.487	0.406	0.406	0.393	0.306	1.05	0.885	1.05	1.22	1.07	0.836	0.835	0.754	0.821	0.861
LCLC-97TM1	0.427	0.451	0.216	0.207	0.122	0.202	0.29	0.225	0.143	0.19	0.669	0.611	0.82	0.809	0.944	0.177	0.188	0.0774	0.168	0.284
LK-2	0.745	0.897	0.767	0.946	0.368	0.183	0.17	0.186	0.217	0.184	–	–	–	0.189	0.186	0.173	0.278	0.162	0.32	0.271
LOU-NH91	0.657	0.528	0.57	0.448	0.32	0.639	0.609	0.592	0.548	0.399	0.335	0.302	0.352	0.307	0.266	0.684	0.641	0.402	0.664	0.764
LU99A	0.855	0.779	0.465	0.363	0.235	0.234	0.272	0.232	0.244	0.232	0.265	0.255	0.275	0.355	0.28	0.372	0.435	0.345	0.331	0.377
LXF-289	0.872	0.755	0.721	0.63	0.538	0.198	0.174	0.208	0.181	0.143	0.668	0.662	0.741	0.69	0.785	1.14	1.16	0.975	1.21	1.1
NCI-H23	0.624	0.58	0.347	0.344	0.247	0.339	0.211	0.283	0.248	0.213	0.232	0.178	–	0.194	0.222	0.264	0.232	0.167	0.252	0.189
NCI-H322M	1.15	0.97	1.01	0.827	0.687	0.465	0.361	0.387	0.331	0.369	0.812	0.76	0.798	0.946	0.929	0.58	0.488	0.509	0.592	0.617
